Measured values published in ChEMBL document CHEMBL1201862, “PubChem BioAssay data set” (2004).
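The compound was tested at five concentrations on cells cultured in 96-well plates, with a 48-hour exposure period. Abbreviation: GI50, concentration required for 50% inhibition of growth.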 The source made the active and inactive calls. Cut-off read from the data, not from the text of the source: active = GI50 up to about 1.1 µM and inactive = higher.

Key:
Experiment in all cases: growth of human tumour cells (NCI), 48 h
CAKI-1 = system: CAKI-1
COLO 205 = system: COLO 205
DU-145 = system: DU-145
HCC 2998 = system: HCC 2998
HCT-15 = system: HCT-15
HL-60 = system: HL-60
K562 = system: K562
KM12 = system: KM12
M14 = system: M14
MDA-MB-231 = system: MDA-MB-231
MDA-N = system: MDA-N
NCI-H23 = system: NCI-H23
OVCAR-4 = system: OVCAR-4
RPMI-8226 = system: RPMI-8226
RXF 393 = system: RXF 393
SF-268 = system: SF-268
SF-539 = system: SF-539
U-251 = system: U-251
SK-OV-3 = system: SK-OV-3
SNB-75 = system: SNB-75

Measured: GI50

CC(=O)C(C(C)=O)[C@@H]1OC(C)(C)O[C@@H]1[C@H]1COC(C)(C)O1
inactive: CAKI-1 53.2 µM | COLO 205 43.5 µM | DU-145 51.8 µM | HCC 2998 > 100 µM | HL-60 26.6 µM | K562 30.2 µM | KM12 41.4 µM | M14 47.4 µM | MDA-MB-231 > 100 µM | MDA-N 23.3 µM | NCI-H23 34 µM | OVCAR-4 51.1 µM | RPMI-8226 34.7 µM | RXF 393 51.8 µM | SF-268 30.1 µM | SF-539 > 100 µM | U-251 42.8 µM
41.5 µM: HCT-15

CC(O)CCNC(=O)Nc1c(C(F)(F)F)cc(-c2ccccc2)[nH]c1=O (stereo not given)
> 100 µM: HCT-15
inactive: CAKI-1 > 100 µM | COLO 205 > 100 µM | DU-145 > 100 µM | HCC 2998 > 100 µM | HL-60 67.9 µM | K562 > 100 µM | KM12 > 100 µM | M14 > 100 µM | MDA-MB-231 > 100 µM | MDA-N > 100 µM | NCI-H23 > 100 µM | OVCAR-4 > 100 µM | RPMI-8226 > 100 µM | RXF 393 > 100 µM | SF-268 > 100 µM | SK-OV-3 > 100 µM | SNB-75 > 100 µM | U-251 > 100 µM

CC1(C)c2ccccc2C(O)C12CCC(=O)CC2 (stereo not given)
inactive: COLO 205 > 100 µM | DU-145 > 100 µM | HCC 2998 > 100 µM | HL-60 > 100 µM | K562 > 100 µM | KM12 > 100 µM | M14 > 100 µM | MDA-MB-231 > 100 µM | MDA-N > 100 µM | NCI-H23 > 100 µM | OVCAR-4 > 100 µM | RPMI-8226 > 100 µM | RXF 393 14.5 µM | SF-268 > 100 µM | SF-539 > 100 µM | SK-OV-3 > 100 µM | U-251 > 100 µM
> 100 µM: HCT-15

Cc1cn([C@@H]2C[C@](C)(CO)N(C)O2)c(=O)[nH]c1=O
> 100 µM: HCT-15
inactive: CAKI-1 > 100 µM | COLO 205 > 100 µM | DU-145 > 100 µM | HCC 2998 > 100 µM | HL-60 > 100 µM | K562 > 100 µM | KM12 > 100 µM | M14 > 100 µM | MDA-MB-231 > 100 µM | MDA-N > 100 µM | NCI-H23 > 100 µM | OVCAR-4 > 100 µM | RPMI-8226 > 100 µM | RXF 393 > 100 µM | SF-268 > 100 µM | SK-OV-3 > 100 µM | SNB-75 8.53 µM | U-251 > 100 µM

c1ccc(C2(c3ccccc3)S/C(=C3/SC(c4ccccc4)(c4ccccc4)c4ccccc43)c3ccccc32)cc1
inactive: CAKI-1 > 100 µM | COLO 205 > 100 µM | DU-145 > 100 µM | HCC 2998 > 100 µM | HL-60 > 100 µM | K562 > 100 µM | KM12 > 100 µM | M14 > 100 µM | MDA-MB-231 > 100 µM | MDA-N > 100 µM | NCI-H23 > 100 µM | OVCAR-4 > 100 µM | RXF 393 > 100 µM | SF-268 > 100 µM | SF-539 > 100 µM | SK-OV-3 > 100 µM | SNB-75 > 100 µM | U-251 > 100 µM
> 100 µM: HCT-15

C=C(C(=O)OC)[C@H]1CC/C(C)=C/CC/C(C)=C/CC[C@@]2(C)O[C@@H]2C1
16.3 µM: HCT-15
inactive: CAKI-1 13.2 µM | COLO 205 15 µM | DU-145 21.9 µM | HCC 2998 16 µM | HL-60 13 µM | K562 11.9 µM | KM12 16.5 µM | M14 21.9 µM | MDA-MB-231 15.9 µM | MDA-N 18.2 µM | NCI-H23 19.3 µM | OVCAR-4 26.8 µM | RPMI-8226 14.4 µM | RXF 393 14.9 µM | SF-539 17.9 µM | SK-OV-3 43.7 µM | SNB-75 65.2 µM | U-251 20.1 µM

C=CCOC(=O)Cn1ccc(=O)[nH]c1=O
> 100 µM: HCT-15
inactive: CAKI-1 > 100 µM | COLO 205 > 100 µM | DU-145 > 100 µM | HCC 2998 > 100 µM | HL-60 > 100 µM | K562 > 100 µM | KM12 > 100 µM | M14 > 100 µM | MDA-MB-231 > 100 µM | MDA-N > 100 µM | NCI-H23 > 100 µM | RPMI-8226 > 100 µM | SF-268 > 100 µM | SF-539 > 100 µM | SK-OV-3 > 100 µM | SNB-75 > 100 µM | U-251 > 100 µM

Cc1ccc(S(=O)(=O)SC(C)(C)C)cc1
inactive: CAKI-1 22.2 µM | COLO 205 47.6 µM | DU-145 > 100 µM | HCC 2998 > 43.5 µM | HL-60 18 µM | K562 19.9 µM | KM12 45.2 µM | M14 31.6 µM | MDA-MB-231 24.7 µM | MDA-N > 10 µM | NCI-H23 11.2 µM | OVCAR-4 22.2 µM | RPMI-8226 15.3 µM | SF-268 45.5 µM | SF-539 32.1 µM | SK-OV-3 > 100 µM | SNB-75 > 63.5 µM | U-251 > 100 µM
23.4 µM: HCT-15

C[C@]12Cc3cnn(-c4ccc(F)cc4)c3NC1CC[C@@H]1C2CC[C@@]2(C)C1CC[C@@H]2O (stereo not given in full)
inactive: CAKI-1 15.5 µM | COLO 205 2.94 µM | DU-145 5.42 µM | HCC 2998 5.41 µM | HL-60 1.61 µM | K562 2.94 µM | KM12 4.95 µM | M14 11.1 µM | MDA-MB-231 6.97 µM | MDA-N 10.2 µM | NCI-H23 2.85 µM | OVCAR-4 13.2 µM | RXF 393 1.16 µM | SF-268 10.1 µM | SF-539 1.55 µM | SK-OV-3 11.7 µM | SNB-75 2.76 µM | U-251 5.15 µM

N=C(N)NCC[C@H](NC(=O)OCCCCCn1ccc(=O)[nH]c1=O)C(=O)O
inactive: CAKI-1 > 100 µM | COLO 205 > 100 µM | DU-145 > 100 µM | HCC 2998 > 100 µM | HL-60 > 100 µM | K562 > 100 µM | KM12 > 100 µM | MDA-MB-231 > 100 µM | MDA-N > 100 µM | NCI-H23 > 100 µM | OVCAR-4 > 100 µM | RPMI-8226 > 100 µM | RXF 393 > 100 µM | SF-268 > 100 µM | SF-539 > 100 µM | SK-OV-3 > 100 µM | SNB-75 41.4 µM | U-251 > 100 µM
> 100 µM: HCT-15

N#C[BH2-][n+]1cn(C2CC(OP(=O)(O)OCC3OC(n4cnc5c(=O)[nH]c(N)nc54)CC3O)C(CO)O2)c2nc(N)[nH]c(=O)c21 (stereo not given)
> 100 µM: HCT-15
inactive: CAKI-1 > 100 µM | COLO 205 > 100 µM | DU-145 > 100 µM | HCC 2998 > 100 µM | HL-60 > 100 µM | K562 55.5 µM | KM12 > 100 µM | MDA-MB-231 > 100 µM | MDA-N > 100 µM | NCI-H23 > 100 µM | OVCAR-4 > 100 µM | RPMI-8226 > 100 µM | RXF 393 > 100 µM | SF-268 44.4 µM | SF-539 > 100 µM | SK-OV-3 > 100 µM | SNB-75 > 100 µM | U-251 > 100 µM
